The values below come from patent publication US20210379016A1, “THERAPEUTICS AND METHODS OF TREATMENT OF ANGIOTENSIN-CONVERTING ENZYME 2 ASSOCIATED CONDITIONS” (Board of Supervisors of Louisiana State University and …, priority 2020, published 2021).

“Also recorded” adds a separate entry of the source.

The Ki is the equilibrium dissociation constant of an inhibitor or competing ligand from its target. For orientation: IC50 means the concentration that inhibits the measured activity by half.

One experiment has as its target Sigmar1 (Homo sapiens, UniProt Q99720). The note with it: cited from earlier work; for Ki: read-out: binding affinity Ki for Sigmar1.
Experiment [1] concerns ACE2 expression in HEK-293 cells. In words: ACE2 expression in HEK-293 cells treated with Sigmar1 ligands for 24 hours. The class given is cell-based. The note with it: 24 hours treatment.

Chain of Sigmar1 (Q99720 whole entry, species assumed): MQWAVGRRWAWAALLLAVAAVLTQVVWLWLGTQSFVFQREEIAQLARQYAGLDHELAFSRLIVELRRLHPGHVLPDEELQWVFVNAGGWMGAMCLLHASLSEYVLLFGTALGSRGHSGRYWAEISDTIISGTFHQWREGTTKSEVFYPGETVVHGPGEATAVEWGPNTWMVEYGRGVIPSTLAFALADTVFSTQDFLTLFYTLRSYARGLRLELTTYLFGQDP

For `c1ccc(CCN2CCCCC2)cc1` [AC927, 1-(2-phenylethyl) piperidine], at Sigmar1, the Ki is 30 ± 2 nM.
For the compound `CN1CCN(CCc2ccc(Cl)c(Cl)c2)CC1` [BD1063, 1-[2-(3,4-dichlorophenyl)ethyl]-4-methylpiperazine], at Sigmar1, the Ki was 9 ± 1 nM.
Consider `CCN(CCc1ccc(Cl)c(Cl)c1)CCN1CCCC1` [BD1067, N-[2-(3,4-dichlorophenyl)ethyl]-N-ethyl-1-pyrrolidineethanamine], for which the Ki at Sigmar1 was 2 ± 0.5 nM.
Take `S=c1sc2ccccc2n1CCCCN1CCN(C2CCCCC2)CC1` [CM156, 3-(4-(4-cyclohexylpiperazin-1-yl)butyl) benzo [d]thiazole-2(3H)-thione]: the “affinity for Sigmar1 (in words)” value at Sigmar1 was “nanomolar affinity”.
Take `CCCN(CCC)CCc1ccc(OC)c(OCCc2ccccc2)c1` [NE-100, 4-methoxy-3-(2-phenylethoxy)-N,N-dipropylbenzeneethanamine]: the ACE2 expression entry in experiment [1] is recorded as “significantly decreased the ACE2 expression; also recorded: decreases the ACE2 expression”.
In the case of `COc1ccc(N2C[C@H](CN3CCC(O)(c4ccc5c(c4)OCO5)CC3)OC2=O)cc1` [Panamesine], on Sigmar1, the IC50 is 6 nM.
With `CN[C@H]1CC[C@@H](c2ccc(Cl)c(Cl)c2)c2ccccc21` [Sertraline], the ACE2 expression result in experiment [1] is recorded as “significantly decreased the ACE2 expression; also recorded: decreases the ACE2 expression”.
